ChEMBL document CHEMBL5247643, “Discovery and Characterization of BAY-805, a Potent and Selective Inhibitor of Ubiquitin-Specific Protease USP21” (J Med Chem, 2023)
Calls of active or inactive are those of the source. No cut-off for these calls is given here.

Experiments:
Conditions in all cases: dose 10-50 µM
[1] = biological target: T1, Ubiquitin carboxyl-terminal hydrolase 22 (Homo sapiens) (UniProt Q9UPT9); assay: Inhibition of human USP22 (1 to 525 residues) expressed in Sf9 cells using ubiquitin rhodamine 110 as substrate assessed as remaining enzyme activity at 10 to 50 uM by fluorometric assay
T1 sequence (whole entry): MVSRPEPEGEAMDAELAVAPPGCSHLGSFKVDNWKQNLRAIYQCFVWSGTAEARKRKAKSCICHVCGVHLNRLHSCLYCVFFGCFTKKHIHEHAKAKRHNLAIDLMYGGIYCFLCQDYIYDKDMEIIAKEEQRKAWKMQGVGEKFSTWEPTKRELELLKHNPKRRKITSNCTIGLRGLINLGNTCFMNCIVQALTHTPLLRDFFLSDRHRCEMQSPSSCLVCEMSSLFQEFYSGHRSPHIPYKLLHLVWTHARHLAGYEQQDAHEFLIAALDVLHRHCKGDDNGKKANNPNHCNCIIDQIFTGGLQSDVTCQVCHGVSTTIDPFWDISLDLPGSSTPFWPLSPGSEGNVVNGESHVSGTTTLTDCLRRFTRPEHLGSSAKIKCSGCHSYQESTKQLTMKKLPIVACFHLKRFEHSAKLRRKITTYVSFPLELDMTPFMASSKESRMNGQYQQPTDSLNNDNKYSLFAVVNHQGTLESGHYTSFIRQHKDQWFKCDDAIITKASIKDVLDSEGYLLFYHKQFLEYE

[2] = biological target: T2, Ubiquitin carboxyl-terminal hydrolase 5 (Homo sapiens) (UniProt P45974); assay: Inhibition of human USP5 (1 to 835 residues) expressed in Sf9 cells using ubiquitin rhodamine 110 as substrate assessed as remaining enzyme activity at 10 to 50 uM by fluorometric assay
T2 sequence (whole entry): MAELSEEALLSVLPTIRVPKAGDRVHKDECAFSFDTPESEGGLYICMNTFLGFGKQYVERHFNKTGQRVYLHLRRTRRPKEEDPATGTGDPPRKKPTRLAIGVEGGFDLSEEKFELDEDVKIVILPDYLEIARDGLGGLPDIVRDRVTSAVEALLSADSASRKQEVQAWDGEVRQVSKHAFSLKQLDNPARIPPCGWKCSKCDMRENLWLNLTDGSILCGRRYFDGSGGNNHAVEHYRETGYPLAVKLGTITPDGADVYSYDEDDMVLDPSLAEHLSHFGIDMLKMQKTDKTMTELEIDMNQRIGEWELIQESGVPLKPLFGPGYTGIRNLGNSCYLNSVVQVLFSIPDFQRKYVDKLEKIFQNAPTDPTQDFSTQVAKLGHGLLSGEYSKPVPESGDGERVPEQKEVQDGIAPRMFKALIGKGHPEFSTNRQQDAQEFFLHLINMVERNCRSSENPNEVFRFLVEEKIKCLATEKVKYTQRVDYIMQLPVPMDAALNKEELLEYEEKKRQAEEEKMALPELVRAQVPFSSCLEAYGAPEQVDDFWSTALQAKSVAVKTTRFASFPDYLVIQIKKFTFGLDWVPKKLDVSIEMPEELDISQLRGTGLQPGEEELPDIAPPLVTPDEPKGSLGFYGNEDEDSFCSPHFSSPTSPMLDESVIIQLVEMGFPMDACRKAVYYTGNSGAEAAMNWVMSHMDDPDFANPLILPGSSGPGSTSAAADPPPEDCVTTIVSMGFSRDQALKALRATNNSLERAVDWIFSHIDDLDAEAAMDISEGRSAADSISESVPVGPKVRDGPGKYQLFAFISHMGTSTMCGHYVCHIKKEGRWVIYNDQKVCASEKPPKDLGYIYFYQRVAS

[3] = biological target: T2, Ubiquitin carboxyl-terminal hydrolase 5 (Homo sapiens); assay: Inhibition of human USP5 using ubiquitin rhodamine 110 as substrate at 10 to 50 uM by fluorometric assay
[4] = biological target: T3, Ubiquitin carboxyl-terminal hydrolase 30 (Homo sapiens) (UniProt Q70CQ3); assay: Inhibition of human USP30 using ubiquitin rhodamine 110 as substrate at 10 to 50 uM by fluorometric assay
T3 sequence (whole entry): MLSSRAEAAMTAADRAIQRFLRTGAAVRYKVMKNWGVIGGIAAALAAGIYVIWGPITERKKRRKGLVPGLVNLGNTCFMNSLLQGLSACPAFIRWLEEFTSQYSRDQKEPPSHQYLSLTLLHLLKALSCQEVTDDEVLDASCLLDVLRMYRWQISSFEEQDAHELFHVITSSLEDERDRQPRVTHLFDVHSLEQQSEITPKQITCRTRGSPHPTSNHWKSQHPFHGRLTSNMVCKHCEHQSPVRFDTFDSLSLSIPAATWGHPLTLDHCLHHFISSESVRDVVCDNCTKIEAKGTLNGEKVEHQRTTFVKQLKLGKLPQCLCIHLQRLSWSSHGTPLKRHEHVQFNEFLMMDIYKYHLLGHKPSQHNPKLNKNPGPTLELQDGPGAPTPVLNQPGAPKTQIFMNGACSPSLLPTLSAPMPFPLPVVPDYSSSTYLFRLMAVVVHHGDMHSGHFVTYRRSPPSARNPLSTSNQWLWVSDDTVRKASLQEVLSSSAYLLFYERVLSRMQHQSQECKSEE

| SMILES | Activity [1] | Activity [2] | inhibition [3] | inhibition [4] |
| --- | --- | --- | --- | --- |
| CC(NC(=O)C1CCCC1)C(=O)Nc1nnc(Cc2ccc([N+](=O)[O-])cc2)s1 (racemic) | < 50% | < 50% |  |  |
| CC(C)C[C@H](NC(=O)C1(C(F)(F)F)CCCCC1)C(=O)Nc1nnc(Cc2ccc(C#N)cc2)s1 |  |  | inactive | inactive |
